Measured values from patent US20230241226A1, “COMPOUNDS FOR TARGETED DEGRADATION OF CARRIER PROTEINS AND USES THEREOF” (CeMM - Forschungszentrum für Molekulare Medizin GmbH, priority 2019, published 2023).

Tests used:
dTAG-HA SLC16A1 = target: T1, dTAG-HA SLC16A1 (Homo sapiens, UniProt P53985+Q96SW2); test: Targeted degradation of dTAG-tagged SLC16A1 (western blot); format: cell-based; conditions: HAP1, 0.5 µM, 24, 48 or 72 hours
T1 construct: expressed in transfected cells
Procedure: (C)HAP1 cells expressing dTAG-HA SLC1A5, 2A3, 30A9, 35B2, MTCH2, and 33A1 were treated for 24 hours with 0.5 µM of dTAG7 or dTAG13, as indicated. HAP1 cells expressing dTAG-HA SLC2A1 and 16A1 were treated for 24 hrs with 0.5 µM of dTAG7. HAP1 cell lines expressing dTAG-HA SLC39A7, dTAG-HA SLC4A4, and SLC7A3-dTAG-HA were treated for 48 hrs with 0.5 µM of dTAG13.
SLC1A5, SLC2A1, SLC2A3, SLC16A1, SLC38A1, SLC38A2 were obtained as gateway-compatible pENTR/pDONR vectors from the Harvard PlasmID Repository. SLC39A7 was obtained from Dharmacon, GE Healthcare. The following vectors were synthesized by Genescript: SLC4A4, SLC7A3, SLC38A9, SLC25A1, SLC9A1, SLC9A2, SLC9A3, SLC9A4, SLC9A5, SLC9A6, SLC9A7, SLC9A8, and SLC9B2. […]
(§1) For immunoblotting, whole cell extracts were prepared using RIPA lysis buffer (25 mM Tris/HCl pH 7.6, 150 mM NaCl, 1% NP-40, 1% sodium deoxycholate, 0.1% SDS, EDTA-free protease inhibitor (Roche) and phosphatase inhibitors 2+3 (Sigma- Aldrich)). […] Protein extracts were quantified and normalized using the BCA assay (Thermo Scientific). […]
SLCs were ectopically expressed as fusions to a mutated FKBP domain, also known as the dTAG system. […]

Strep/HA SLC9A5 = target: T2, Strep/HA SLC9A5 (Homo sapiens, UniProt Q14940); test: Selectivity across SLC9 family: degradation of exogenous Strep/HA SLC9A5; format: cell-based; conditions: HAP1; 250 or 750 nM; 16 hours
T2 construct: expressed in transfected cells; host or cells: HAP1 (lentiviral, pRRL Strep-HA; cDNA synthesized by Genescript)
T2 sequence (Q14940 whole entry): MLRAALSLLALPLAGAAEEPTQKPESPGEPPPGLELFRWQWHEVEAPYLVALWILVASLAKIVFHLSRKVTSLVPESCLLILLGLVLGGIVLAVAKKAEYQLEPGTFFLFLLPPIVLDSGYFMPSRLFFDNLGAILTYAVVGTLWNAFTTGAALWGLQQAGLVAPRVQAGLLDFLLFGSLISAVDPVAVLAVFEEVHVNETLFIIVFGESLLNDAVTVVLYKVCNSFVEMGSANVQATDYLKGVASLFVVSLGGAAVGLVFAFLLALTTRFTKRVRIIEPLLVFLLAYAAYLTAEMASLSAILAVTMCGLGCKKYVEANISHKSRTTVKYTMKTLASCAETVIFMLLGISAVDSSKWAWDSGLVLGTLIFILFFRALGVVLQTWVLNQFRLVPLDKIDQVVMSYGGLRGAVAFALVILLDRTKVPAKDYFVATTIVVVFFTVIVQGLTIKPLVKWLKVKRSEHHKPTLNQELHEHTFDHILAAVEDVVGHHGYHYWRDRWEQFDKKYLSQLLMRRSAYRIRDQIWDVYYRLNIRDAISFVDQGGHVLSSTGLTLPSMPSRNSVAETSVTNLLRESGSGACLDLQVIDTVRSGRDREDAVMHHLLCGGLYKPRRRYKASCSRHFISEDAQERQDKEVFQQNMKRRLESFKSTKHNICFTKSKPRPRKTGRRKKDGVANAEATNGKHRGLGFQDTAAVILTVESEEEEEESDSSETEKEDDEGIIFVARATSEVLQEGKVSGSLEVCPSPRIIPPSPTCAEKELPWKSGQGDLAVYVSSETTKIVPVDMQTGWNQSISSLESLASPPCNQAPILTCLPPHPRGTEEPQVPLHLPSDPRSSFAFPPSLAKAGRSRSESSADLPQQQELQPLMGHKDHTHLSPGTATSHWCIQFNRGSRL
Procedure: (E) Selectivity of d9A1-2 was tested across HAP1 cell lines expressing Strep/HASLC9A1, 9A4, 9A5, 9A8, 9A2, 9B2, 9A6, 9A9, and 9A3. Cells were treated with varying concentrations of d9A1-2 for 16 hours, after which degradation of the exogenous SLCs was monitored.
SLC1A5, SLC2A1, SLC2A3, SLC16A1, SLC38A1, SLC38A2 were obtained as gateway-compatible pENTR/pDONR vectors from the Harvard PlasmID Repository. SLC39A7 was obtained from Dharmacon, GE Healthcare. The following vectors were synthesized by Genescript: SLC4A4, SLC7A3, SLC38A9, SLC25A1, SLC9A1, SLC9A2, SLC9A3, SLC9A4, SLC9A5, SLC9A6, SLC9A7, SLC9A8, and SLC9B2. SLC30A9, SLC33A1, SLC35B2, SLC25A26, and MTCH2 were a gift from the RESOLUTE consortium. cDNAs were transferred into gateway-compatible lentiviral expression vectors: pLX305 dTAG vectors (Addgene #91797/8) or pRRL Strep-HA (described previously43, EF1a promotor driven expression) using LR recombination (ThermoFisher Scientific). […]
as §1

[1] = test system: Peripheral blood mononuclear cells (PBMCs); test: Cell viability assay (CellTiter-Glo), single dose, FIG. 10; format: cell-based, human; conditions: patient samples; 75 nM d9A1-2 vs 7.5 µM EIPA; 72 hours
Procedure: FIG. 10: Viability assay Relative viability of Peripheral blood mononuclear cells (PBMCs) after single-dose treatment with the d9A1-2 molecule or ethyl-isopropyl amiloride (EIPA). PBMCs were isolated from healthy donors and patients with acute myeloid leukemia, multiple myeloma, B cell lymphoma and Hodgkin’s lymphoma, chronic lymphocytic leukeumia. Viability was assayed using the CellTiter-Glo assay, 72 hours post treatment.
Peripheral blood mononuclear cells (PBMCs) were isolated using Lymphoprep (Stem Cell Technologies) from healthy donors and patients with acute myeloid leukemia, multiple myeloma, B cell lymphoma, Hodgkin’s lymphoma, chronic lymphocytic leukeumia. For comparison of different samples, compounds were transferred on black 384-well plates using an acoustic liquid handler (Echo, Labcyte).
Cells were seeded in these plates at densities of 20,000 cells per well in RPMI media (Gibco), supplemented with 10% fetal calf serum (Gibco). Viability was measured after 72 hours using the CellTiter-Glo assay (Promega) on a plate reader (SpectraMax i3x, Molecular Probes). All measurements were done in technical quadruplicates. Toxicity achieved by treatment with d9A1-2 or ethyl-isopropyl amiloride (EIPA) (Sigma) was normalized to the reference controls. Dose response fitting curves were obtained and plotted using GraphPad Prism V8. Data is presented as mean +/- SD.

T1 sequence (P53985 with tags, fused parts or gaps): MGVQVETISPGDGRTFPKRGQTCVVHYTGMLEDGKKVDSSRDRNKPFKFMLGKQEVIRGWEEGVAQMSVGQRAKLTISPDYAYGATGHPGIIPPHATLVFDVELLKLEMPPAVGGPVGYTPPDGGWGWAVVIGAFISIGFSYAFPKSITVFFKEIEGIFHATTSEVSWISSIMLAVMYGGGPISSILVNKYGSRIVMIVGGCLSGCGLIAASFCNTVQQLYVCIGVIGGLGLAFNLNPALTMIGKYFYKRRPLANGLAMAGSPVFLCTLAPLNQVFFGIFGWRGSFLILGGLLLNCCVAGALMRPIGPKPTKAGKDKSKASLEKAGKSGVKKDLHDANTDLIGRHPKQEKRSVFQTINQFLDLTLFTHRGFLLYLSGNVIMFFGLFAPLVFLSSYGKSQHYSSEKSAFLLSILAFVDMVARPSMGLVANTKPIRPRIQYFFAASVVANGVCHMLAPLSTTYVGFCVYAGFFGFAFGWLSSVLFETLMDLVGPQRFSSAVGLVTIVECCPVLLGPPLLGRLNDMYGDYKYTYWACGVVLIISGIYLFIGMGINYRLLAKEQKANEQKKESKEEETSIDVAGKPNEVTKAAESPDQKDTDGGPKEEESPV
T1 sequence (Q96SW2 whole entry): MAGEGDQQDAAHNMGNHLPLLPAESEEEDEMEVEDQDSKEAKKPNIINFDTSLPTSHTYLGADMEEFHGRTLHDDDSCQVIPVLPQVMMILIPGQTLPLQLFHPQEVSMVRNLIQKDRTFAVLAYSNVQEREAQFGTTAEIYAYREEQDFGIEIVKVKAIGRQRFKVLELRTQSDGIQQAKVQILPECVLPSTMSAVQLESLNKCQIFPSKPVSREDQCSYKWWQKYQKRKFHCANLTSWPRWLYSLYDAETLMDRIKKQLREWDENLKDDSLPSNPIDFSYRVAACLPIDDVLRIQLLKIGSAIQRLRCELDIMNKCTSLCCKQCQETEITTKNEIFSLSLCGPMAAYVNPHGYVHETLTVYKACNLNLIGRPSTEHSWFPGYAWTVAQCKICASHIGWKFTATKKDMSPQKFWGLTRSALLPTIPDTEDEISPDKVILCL
T1 sequence (Q16531 whole entry partner): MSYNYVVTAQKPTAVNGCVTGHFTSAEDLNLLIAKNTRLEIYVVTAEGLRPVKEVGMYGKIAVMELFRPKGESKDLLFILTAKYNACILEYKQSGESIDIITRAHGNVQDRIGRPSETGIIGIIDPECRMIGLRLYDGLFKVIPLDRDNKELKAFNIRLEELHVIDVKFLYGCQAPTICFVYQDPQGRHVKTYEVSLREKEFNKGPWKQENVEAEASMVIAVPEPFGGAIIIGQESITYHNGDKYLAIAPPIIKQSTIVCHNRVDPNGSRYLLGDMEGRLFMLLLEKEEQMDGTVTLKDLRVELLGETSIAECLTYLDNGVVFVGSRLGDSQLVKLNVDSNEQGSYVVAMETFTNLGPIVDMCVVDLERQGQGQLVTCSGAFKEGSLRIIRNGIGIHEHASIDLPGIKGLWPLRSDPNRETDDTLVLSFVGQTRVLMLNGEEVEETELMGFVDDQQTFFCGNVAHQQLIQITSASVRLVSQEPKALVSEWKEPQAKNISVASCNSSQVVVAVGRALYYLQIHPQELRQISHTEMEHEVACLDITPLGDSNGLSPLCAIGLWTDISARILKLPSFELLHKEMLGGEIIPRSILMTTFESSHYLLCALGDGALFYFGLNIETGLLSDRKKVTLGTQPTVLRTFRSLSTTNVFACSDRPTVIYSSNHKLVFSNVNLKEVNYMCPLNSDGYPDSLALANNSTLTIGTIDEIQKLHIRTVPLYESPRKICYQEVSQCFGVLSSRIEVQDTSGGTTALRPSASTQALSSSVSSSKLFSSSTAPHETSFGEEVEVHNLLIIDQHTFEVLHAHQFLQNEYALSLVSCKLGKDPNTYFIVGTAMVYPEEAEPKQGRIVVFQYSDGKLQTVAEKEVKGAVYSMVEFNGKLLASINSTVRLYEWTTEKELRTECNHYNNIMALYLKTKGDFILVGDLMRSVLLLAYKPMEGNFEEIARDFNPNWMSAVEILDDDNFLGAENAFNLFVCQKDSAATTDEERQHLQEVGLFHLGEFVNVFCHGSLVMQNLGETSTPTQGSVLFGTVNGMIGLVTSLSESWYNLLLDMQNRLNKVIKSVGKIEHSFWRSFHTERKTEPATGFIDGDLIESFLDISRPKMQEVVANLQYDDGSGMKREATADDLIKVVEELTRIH

reversibility of degradation of the target SLC (dTAG-HA SLC16A1) | abundance of exogenous SLC9A5 (Strep/HA SLC9A5) | Structure (SMILES) | toxicity (relative viability) in patient PBMCs compared with EIPA [1]
reversible degradation | – | CC[C@H](C(=O)N1CCCC[C@H]1C(=O)O[C@H](CCc1ccc(OC)c(OC)c1)c1ccccc1OCC(=O)NCCCOCCOCCOCCCNC(=O)COc1cccc2c1C(=O)N(C1CCC(=O)NC1=O)C2=O)c1cc(OC)c(OC)c(OC)c1 (stereo partly drawn) [dTAG7] | –
– | not significantly affected | Cc1cc(-c2ccc(C(=O)NCCOCCOCCOCCOCCNc3cccc4c3C(=O)N(C3CCC(=O)NC3=O)C4=O)cc2N2CCC(c3[nH]cnc3C)CC2)ccc1F (stereo not drawn) [d9A1-2] | considerably more toxic than 7.5 µM EIPA
